Reference: PMC9758846, “Dinuclear and mononuclear metal(II) polypyridyl complexes against drug-sensitive and drug-resistant Plasmodium falciparum and their mode of action” (Malaria Journal, 2022)
Values joined by “and” are separate entries in the source; they are usually repeats but may differ in a detail not shown here. Equal values may be shown once.

Assays:
[1] = tested on: B+ blood red blood cells (RBC); assay: In vitro haemolytic assay; type: cell-based, human; details: up to 25 µM; 72 h
Description: Fresh B+ blood was washed with RPMI1640 medium containing of 30 µg/mL gentamicin (Gibco) and centrifuged at 1000 xg for 10 min three times. The percentage of haemolysis was determined spectroscopically using 5% haematocrit containing test compound at increasing concentration and incubated for 72 h at 37 °C [19, 20]. Untreated blood acted as negative control while blood treated with sterile distilled water acted as positive control (for 100% haemolysis).

[2] = PNDA assay of •OH radicals from reaction with H2O2; details: for Generation of ·OH radicals (in words): equimolar test compound with excess H2O2; for Concentration of •OH radical: 30 µM compound with excess H2O2
Description: A previously reported spectrometric assay using PNDA was used to quantify the amount of reactive oxygen species (ROS), viz. •OH radicals, produced by the reaction of metal(II) complexes with hydrogen peroxide in borate buffer at pH 7.5 [24–26]. The percentage of PNDA bleaching and the concentration of •OH produced were determined.

[3] = target: Pf3D7 20S proteasome trypsin-like (T-L) site (Plasmodium falciparum, UniProt Q8I6T3); assay: 20S proteasome inhibition assay using parasite lysate; type: biochemical; details: Boc-LRR-AMC, 30 min
Description: (§1) To harvest P. falciparum parasites, intraerythrocytic Pf3D7 and Pf5202 were collected in trophozoite and early schizont stages. Red blood cells were lysed in 0.15% (w/v) saponin lysis buffer for 10 min at 37 °C. After lysis, the parasite pellet was washed once with PBS buffer by centrifuging at 1600 rpm for 5 min. Saponin lysis buffer was added once again to remove all the red blood cells for 10 min at 37 °C, followed by washing with PBS twice and immediately used or kept at − 80 °C. To prepare parasite lysates for proteasome purification, parasite pellet was resuspended with 100 µl of pre-cooled Pierce™ RIPA buffer. A mild protein extraction method was used to prepare parasite extracts. The resuspended parasites were passed 20 times through a needle with a diameter of 0.4 mm in a syringe on ice to lyse the parasite. After 15 min centrifugation at 13,000 xg at 4 °C, the supernatant was removed. Protein concentration was determined by the Bradford assay. The activities of 3 proteolytic sites were determined by fluorescence assay using fluorogenic peptide substrates (Suc-LLVY-AMC for chymotrypsin-like, Boc-LRR-AMC for trypsin-like and Suc-LLE-AMC for caspase-like) Proteasome activities were determined by monitoring the substrate hydrolysis for 30 min at 37 °C with 340 nm excitation and 465 nm emission wavelength. Activity of each proteolytic site were calculated, and the IC50 values were determined from the non-linear regression analysis. VR23 proteasome inhibitor was used as positive control.

[4] = target: Pf5202 20S proteasome chymotrypsin-like (CT-L) site (Plasmodium falciparum, UniProt Q8IJT1); assay: as above; type: biochemical; details: Suc-LLVY-AMC, 30 min
Description: as §1

[5] = target: Pf5202 20S proteasome caspase-like (C-L) site (Plasmodium falciparum, UniProt Q8I0U7); assay: as above; type: biochemical; details: Suc-LLE-AMC, 30 min
Description: as §1

[6] = target: Pf5202 20S proteasome trypsin-like (T-L) site (Plasmodium falciparum, UniProt Q8I6T3); assay: as above; type: biochemical; details: parasite lysate; Boc-LRR-AMC; 30 min
Description: as §1

[7] = target: Pf3D7 20S proteasome chymotrypsin-like (CT-L) site (Plasmodium falciparum, UniProt Q8IJT1); assay: as above; type: biochemical; details: Suc-LLVY-AMC, 30 min
Description: as §1

[8] = target: Pf3D7 20S proteasome caspase-like (C-L) site (Plasmodium falciparum, UniProt Q8I0U7); assay: as above; type: biochemical; details: Suc-LLE-AMC, 30 min
Description: as §1

Pf3D7 = assay: Intracellular ROS level using DCFH-DA; type: cell-based, Plasmodium falciparum
Description: (§2) After incubation, packed cells were washed with phosphate buffer saline (PBS) solution. […] The data was expressed as fold change between amount of ROS produced by treated P. falciparum against untreated P. falciparum. Normalization was done with the percentage of parasite viability obtained at each condition. Hydrogen peroxide was used as positive control.

Pf5202 = assay: Intracellular ROS level using DCFH-DA; type: cell-based, Plasmodium falciparum
Description: as §2

[9] = tested on: Plasmodium falciparum IPC5202 (Pf5202); assay: In vitro anti-malarial activity using SYBR Green I nucleic acid dye; type: cell-based; details: 72 h incubation; read-out: IC50 of Pf5202
Description: (§3) The drug-sensitive strain of P. falciparum 3D7 (Pf3D7) was obtained from the Department of Science, Monash University, Malaysia and cultured as previously described. The artemisinin-resistant strain of P. falciparum IPC5202 (Pf5202) was obtained from BEI Resources and cultured as mentioned in the product sheet. Both strains were maintained in sealed flask at 37 °C in a humidified atmosphere of 5% O2, 5% CO2 and 90% N2. All buffer stock solutions for biological assays were autoclaved at 121 °C for 15 min.
(§4) Previously reported anti-malarial assay was used with slight modification using 1% parasitaemia (ring-stage) and 5% haematocrit treated with test compounds at increasing concentration and incubated for 72 h at 37 °C [21–23]. After the incubation, the assay was terminated by freeze/thaw cycle (− 80 °C overnight before thawing for 2 h) before the addition of lysis buffer containing SYBR Green I dye into each well and mixed thoroughly using the belly dancer for 30 min in the dark. Chloroquine diphosphate salt and artemisinin were used as standard drugs. The fluorescence signal was quantified at 485 nm excitation wavelength and 528 nm emission wavelength. IC50 values of each test compound was determined from a dose response curve by non-linear regression analysis.

[10] = tested on: Plasmodium falciparum 3D7 (Pf3D7); assay: as above; type: cell-based; details: 72 h incubation; read-out: IC50 of Pf3D7
Description: as §3, §4

[11] = Solution stability by molar conductivity and visible absorptivity; type: physicochemical; details: 24, 48 and 72 h; room temperature
Description: Series of 10 mM stock solutions were prepared by dissolving the compounds in their respective solvents: phen and 4,4′-bipy in 95% ethanol; Cu(NO3)2·3H2O, Zn(NO3)2·6H2O, (1) and (2) in double distilled water; (3) and (4) in DMSO. All the stock solutions were further diluted with double distilled water to obtain 10 mL of 30 µM, 1 mM and 5 mM for their respective studies, viz. 30 µM for ultraviolet spectral studies, 1 mM for conductivity measurement and 5 mM for visible spectral studies. For the water-DMSO solutions of both complexes (3) and (4), the 30 µM, 1 mM and 5 mM solutions have […], 10% DMSO and 50% DMSO respectively. The absorbance at λmax and conductance were of the aqueous solutions were measured at 0, 24, 48 and 72 h. The molar absorptivity and molar conductivity of the metal(II) complex solutions and their precursors were then calculated.

Chain of Pf3D7 20S proteasome caspase-like (C-L) site (Q8I6T3 entry or part of it): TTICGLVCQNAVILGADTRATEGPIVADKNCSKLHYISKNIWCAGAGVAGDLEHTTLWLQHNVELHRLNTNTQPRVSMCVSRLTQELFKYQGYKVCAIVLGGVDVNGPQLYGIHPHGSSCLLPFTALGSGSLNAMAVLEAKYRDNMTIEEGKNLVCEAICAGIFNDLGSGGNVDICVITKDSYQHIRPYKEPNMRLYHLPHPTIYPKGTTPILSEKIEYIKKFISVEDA
Chain of Pf3D7 20S proteasome caspase-like (C-L) site (Q8I0U7 entry or part of it): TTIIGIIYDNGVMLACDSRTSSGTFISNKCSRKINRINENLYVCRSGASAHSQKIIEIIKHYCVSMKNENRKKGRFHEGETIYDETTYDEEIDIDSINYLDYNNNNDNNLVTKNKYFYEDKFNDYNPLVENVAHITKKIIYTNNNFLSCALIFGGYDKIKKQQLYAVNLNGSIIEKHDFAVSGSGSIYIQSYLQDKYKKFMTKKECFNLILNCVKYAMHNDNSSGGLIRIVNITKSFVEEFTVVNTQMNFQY
Chain of Pf3D7 20S proteasome trypsin-like (T-L) site (Q8I6T3 entry or part of it): as the sequence (Q8I6T3 entry or part of it) above
Chain of Pf5202 20S proteasome trypsin-like (T-L) site (Q8I6T3 entry or part of it): as above
Chain of Pf5202 20S proteasome chymotrypsin-like (CT-L) site (Q8IJT1 entry or part of it): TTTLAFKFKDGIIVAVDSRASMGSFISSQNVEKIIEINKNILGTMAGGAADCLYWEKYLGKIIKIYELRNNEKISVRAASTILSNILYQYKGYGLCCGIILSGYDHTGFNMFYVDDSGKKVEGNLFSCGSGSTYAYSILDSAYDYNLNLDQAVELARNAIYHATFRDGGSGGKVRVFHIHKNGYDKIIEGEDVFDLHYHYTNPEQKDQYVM
Chain of Pf3D7 20S proteasome chymotrypsin-like (CT-L) site (Q8IJT1 entry or part of it): as above
Chain of Pf5202 20S proteasome caspase-like (C-L) site (Q8I0U7 entry or part of it): as the sequence (Q8I0U7 entry or part of it) above
Chain of Pf5202 20S proteasome caspase-like (C-L) site (Q8I6T3 entry or part of it, further chain): as the sequence (Q8I6T3 entry or part of it) above

[Zn(phen)(NO3)-4,4′-bipy-Zn(phen)(NO3)](NO3)2·2H2O [Complex 4]
Haemolysis on B+ blood (in words) [1]: no haemolysis
Generation of ·OH radicals (in words) [2]: did not generate any ·OH radicals
IC50 [3]: > 25 µM
IC50 [4]: > 25 µM
IC50 [5]: > 25 µM
IC50 [6]: > 25 µM
IC50 [7]: > 25 µM
IC50 [8]: > 25 µM
fold change in ROS (Pf3D7; 24 h, 25.0 µM): 0.31 ± 0.31 fold
fold change in ROS (Pf3D7; 48 h, 0.2 µM): 0.52 ± 0.26 fold
fold change in ROS (Pf3D7; 48 h, 1.0 µM): 0.77 ± 0.58 fold
fold change in ROS (Pf3D7; 48 h, 5.0 µM): 0.85 ± 0.40 fold
fold change in ROS (Pf3D7; 48 h, 25.0 µM): 0.42 ± 0.19 fold
fold change in ROS (Pf3D7; 72 h, 0.2 µM): 1.52 ± 0.07 fold
fold change in ROS (Pf3D7; 72 h, 1.0 µM): 1.52 ± 0.14 fold
fold change in ROS (Pf3D7; 72 h, 5.0 µM): 1.85 ± 0.27 fold
fold change in ROS (Pf3D7; 72 h, 25.0 µM): 1.19 ± 0.57 fold
fold change in ROS (Pf5202; 24 h, 1.0 µM): 0.44 ± 0.25 fold
fold change in ROS (Pf5202; 48 h, 5.0 µM): 0.43 ± 0.09 fold
fold change in ROS (Pf5202; 48 h, 25.0 µM): 0.39 ± 0.36 fold
fold change in ROS (Pf5202; 72 h, 1.0 µM): 0.45 ± 0.32 fold
fold change in ROS (Pf5202; 72 h, 5.0 µM): 0.33 ± 0.01 fold
fold change in ROS (Pf5202; 72 h, 25.0 µM): 0.13 ± 0.05 fold
IC50 [9]: > 100 µM
IC50 [10]: 3.9 µM and 3.93 µM

O.O.O=[N+]([O-])[O-].O=[N+]([O-])[O-].[Zn+2].c1cnc2c(c1)ccc1cccnc12.c1cnc2c(c1)ccc1cccnc12 [Complex 2, [Zn(phen)2](NO3)2·2H2O]
Haemolysis on B+ blood (in words) [1]: no haemolysis
Concentration of •OH radical ([2]; 2 h): 0.01 ± 0.08 µM
Concentration of •OH radical ([2]; 4 h): 0.08 ± 0.03 µM
Concentration of •OH radical ([2]; 24 h): 0.20 ± 0.16 µM
Concentration of •OH radical ([2]; 48 h): 0.21 ± 0.05 µM
Concentration of •OH radical ([2]; 72 h): 0.28 ± 0.08 µM
Generation of ·OH radicals (in words) [2]: did not generate any ·OH radicals
fold change in ROS (Pf3D7; 24 h, 0.2 µM): 0.07 ± 0.08 fold
fold change in ROS (Pf3D7; 24 h, 1.0 µM): 0.39 ± 0.19 fold
fold change in ROS (Pf3D7; 24 h, 5.0 µM): 0.45 ± 0.10 fold
fold change in ROS (Pf3D7; 24 h, 25.0 µM): 2.61 ± 0.12 fold
fold change in ROS (Pf3D7; 48 h, 0.2 µM): 1.9 ± 0.38 fold
fold change in ROS (Pf3D7; 48 h, 1.0 µM): 2.13 ± 0.21 fold
fold change in ROS (Pf3D7; 48 h, 5.0 µM): 2.95 ± 0.18 fold
fold change in ROS (Pf3D7; 48 h, 25.0 µM): 2.48 ± 0.26 fold
fold change in ROS (Pf3D7; 72 h, 25.0 µM): 0.70 ± 0.05 fold
fold change in ROS (Pf5202; 24 h, 0.2 µM): 1.07 ± 0.05 fold
fold change in ROS (Pf5202; 24 h, 1.0 µM): 1.10 ± 0.09 fold
fold change in ROS (Pf5202; 24 h, 5.0 µM): 1.00 ± 0.02 fold
fold change in ROS (Pf5202; 24 h, 25.0 µM): 1.04 ± 0.06 fold
fold change in ROS (Pf5202; 72 h, 0.2 µM): 0.00 ± 0.03 fold
fold change in ROS (Pf5202; 72 h, 1.0 µM): 0.34 ± 0.04 fold
fold change in ROS (Pf5202; 72 h, 5.0 µM): 0.16 ± 0.04 fold
Stability of aqueous solution (molar conductivity; for (1) also visible molar absorptivity) [11]: remains practically unchanged
